Experimental data as given in patent US20160022694A1, “A Method of Improving the Efficiency of Beef Production from Bovine Animals” (INTERVET INTERNATIONAL B.V., priority 2013, published 2016).
Marks after values point to notes of the source that are not given here.

Legend:
[1] = test system: finishing steers; test: Feedlot growth performance study: component feeding vs continuous feeding of Zilmax; assay type: in vivo, cattle; conditions: for Final body weight: 20 days, LS mean
Text: A multi-center, randomized complete block design was used. Four study sites enrolled 800 to 1000 head of cattle each. Cattle were randomized to 10 blocks of 80 to 100 head based on body weight, then penned in groups of 16 to 20 head per pen. Finishing steers that were visually estimated to be approximately 58 days from finish were used in the studies. Each site enrolled 800 to 1000 head of cattle. Cattle were randomized to 10 blocks of 80 to 100 head and, within block, to treatment group based on body weight. Study pens consisted of 16 to 20 head per pen. The study was broken into three periods: acclimation, Zilmax® treatment and withdrawal. Between study sites, the number of acclimation days was variable but the Zilmax feeding period was 20 days at all study sites. The withdrawal period ranged from 3 to 5 days across the sites. More than one start time was allowed to accommodate enrollment of the study animals. If blocks were initiated at different times, blocks may have been acclimated for different lengths of time. The minimum length of the acclimation period was 31 days. All animals were permitted ad libitum feed consumption according to standard study site procedure. Feed delivery occurred twice daily. Daily feed issue was recorded on a per pen basis from the start of the acclimation period and until final weights were measured before shipment for harvest. Feed batching and delivery were documented. A component feeding method was tested in the studies by thoroughly mixing the daily zilpaterol dose in the first feeding of the Type C feed prior to delivery to the animal for Groups 2, 3 and 4. […] The daily component feed amount (i.e., the first feeding each day of the Type C feed) was set at approximately 10 lb of feed dry matter (DM) per head to simulate commercial practice for component feeding. Therefore, all study pens were fed approximately 10 lb of DM per head in the first feeding of the day. Control steers were fed the Type C feed that contained no Zilmax. The component feeding treatment groups were fed the Type C feed that contained 60, 75, or 90 mg/head/day. All cattle in the control and three component feeding treatments were fed the non-medicated Type C complete feed (i.e., without Zilmax®) in a second feeding each day. Steers in the 6.8 g/ton Zilmax® treatment group received the Type C complete feed containing this level of Zilmax® in both feedings each day during the 20-day Zilmax® feeding period. Individual animal weights were measured prior to the start of the Acclimation period for use in randomization of animals to treatment groups and pens. The Acclimation period was used to stabilize feed intake and behavioral aspects of the newly sorted pen groups of cattle prior to feeding Zilmax®. Individual weights were measured and unconsumed feed was removed from the feed bunks and weighed on the day of initiation of Zilmax® feeding. After a 20-day Zilmax® feeding period, unconsumed feed was removed from the feed bunks, weighed, and discarded. All animals in the five treatment groups were fed a non-medicated feed (i.e., without Zilmax®) for a minimum 3 day withdrawal period prior to harvest. Unconsumed feed remaining in the feed bunks was removed and weighed on the day of final body weight measurement. Cattle were handled throughout the study using procedures which were typical of commercial practices. Cattle were exposed to ambient weather conditions during the studies. Feed was not restricted prior to weighing or harvest. The primary variables in this study were average daily body weight gain (ADG) and feed efficiency (FE) calculated for the Zilmax® feeding period of the study (Day 0 through end of withdrawal period) and for the entire study (start of the acclimation period to end of withdrawal period). ADG was calculated as a pen average from the ADG of individual animals within the pen using the equation: ADG=(final body weight−Day 0 body weight)/(number of days between the body weight measurements). […]

[2] = test system: finishing steers; test: Secondary (carcass) variables after Zilmax component or continuous feeding; assay type: in vivo, cattle; conditions: for Marbling Score: 400-699 = choice
Text: A multi-center, randomized complete block design was used. Four study sites enrolled 800 to 1000 head of cattle each. Cattle were randomized to 10 blocks of 80 to 100 head based on body weight, then penned in groups of 16 to 20 head per pen. Finishing steers that were visually estimated to be approximately 58 days from finish were used in the studies. Each site enrolled 800 to 1000 head of cattle. Cattle were randomized to 10 blocks of 80 to 100 head and, within block, to treatment group based on body weight. Study pens consisted of 16 to 20 head per pen. A component feeding method was tested in the studies by thoroughly mixing the daily zilpaterol dose in the first feeding of the Type C feed prior to delivery to the animal for Groups 2, 3 and 4. […] The daily component feed amount (i.e., the first feeding each day of the Type C feed) was set at approximately 10 lb of feed dry matter (DM) per head to simulate commercial practice for component feeding. Therefore, all study pens were fed approximately 10 lb of DM per head in the first feeding of the day. Control steers were fed the Type C feed that contained no Zilmax. The component feeding treatment groups were fed the Type C feed that contained 60, 75, or 90 mg/head/day. All cattle in the control and three component feeding treatments were fed the non-medicated Type C complete feed (i.e., without Zilmax®) in a second feeding each day. Steers in the 6.8 g/ton Zilmax® treatment group received the Type C complete feed containing this level of Zilmax® in both feedings each day during the 20-day Zilmax® feeding period. DMI was calculated for the two study periods (start of the acclimation period or Day 0 to the end of the withdrawal period). The following carcass data were collected or calculated: marbling score, USDA quality grade or equivalent, hot carcass weight, ribeye area, backfat thickness (preliminary yield grade and adjusted preliminary yield grade), and USDA yield grade or equivalent. Dressing percent was calculated. Variables continuous in nature were subjected to the analysis described for the primary outcome variables. Outcomes evaluated included: initial body weight, final body weight, weight gain (Day 0 to final date), ADG (acclimation period, initial date to final date), ADG (shrunk, Day 0 to final date and initial date to final date), DMI (acclimation, initial date to final date), as fed intake (Zilmax® period), carcass gain (Day 0 to final date), dressing percent, hot carcass weight, marbling score, fat depth, ribeye area, percent KPH and calculated yield grade. The following carcass data were collected or calculated: marbling score, USDA quality grade or equivalent, hot carcass weight, ribeye area, backfat thickness, calculated yield grade, kidney-pelvic-heart fat percentage, and USDA yield grade or equivalent. The Canadian study site CBGA quality and yield grades were converted to USDA equivalents prior to analysis. Dressing percent was calculated.

[3] = Acclimation to End of Withdrawal (entire study)
[4] = Entire Study (55 to 82 days), component feeding 60 mg/hd/day
[5] = Entire Study (55 to 82 days), component feeding 75 mg/hd/day
[6] = Entire Study (55 to 82 days), component feeding 90 mg/hd/day
[7] = Entire Study (55 to 82 days), continuous 6.8 g/ton
[8] = Zilmax and Withdrawal Period, all treated groups
[9] = Zilmax and Withdrawal Periods (23 to 25 days), component feeding 60 mg/hd/day
[10] = Zilmax and Withdrawal Periods (23 to 25 days), component feeding 75 mg/hd/day
[11] = Zilmax and Withdrawal Periods (23 to 25 days), component feeding 90 mg/hd/day
[12] = Zilmax and Withdrawal Periods (23 to 25 days), continuous 6.8 g/ton

## CC(C)NC1CCn2c(=O)[nH]c3cccc(c32)C1O (centres unmarked) [Zilmax, 4,5,6,7-tetrahydro-7-hydroxy-6-(isopropylamino) imidazo[4,5,1-jk]-[1]benzazepin-2(1H)-one]
[1]; [3]
  ADG, component feeding groups vs continuous feeding group: No differences
  ADG, treated groups compared to the control group: significantly higher
  FE, component feeding groups vs continuous feeding group: No differences
  FE, treated groups compared to the control group: significantly lower
[1]; Acclimation to End of Withdrawal (entire study), P>0.51
  DMI, among the treatment groups: No differences
[1]; [4]
  ADG: 4.14* lb/head/day
  DMI: 22.71 lb/head/day
  FE (Feed / Gain): 5.64*
[1]; [5]
  ADG: 4.12* lb/head/day
  DMI: 22.75 lb/head/day
  FE (Feed / Gain): 5.65*
[1]; [6]
  ADG: 4.13* lb/head/day
  DMI: 22.65 lb/head/day
  FE (Feed / Gain): 5.62*
[1]; [7]
  ADG: 4.19* lb/head/day
  DMI: 22.93 lb/head/day
  FE (Feed / Gain): 5.64*
[1]; Zilmax and Withdrawal Period
  ADG, component feeding groups vs continuous feeding group: No differences
  DMI, component feeding groups compared to the control group: significantly lower
  DMI, continuous feeding group vs control group: no significant difference
  FE, component feeding groups vs continuous feeding group: No differences
[1]; [8]
  ADG, treated groups compared to the control group: significantly higher
  FE, treated groups compared to the control group: significantly lower
[1]; [9]
  ADG: 4.13*^(c) lb/head/day
  DMI: 22.57* lb/head/day
  FE (Feed / Gain): 5.89*
[1]; [10]
  ADG: 3.99* lb/head/day
  DMI: 22.70* lb/head/day
  FE (Feed / Gain): 5.99*
[1]; [11]
  ADG: 3.97* lb/head/day
  DMI: 22.39* lb/head/day
  FE (Feed / Gain): 6.10*
[1]; [12]
  ADG: 4.23* lb/head/day
  DMI: 22.87 lb/head/day
  FE (Feed / Gain): 5.96*
[1]; component feeding 60 mg/hd/day
  Final body weight: 1463 lb/head
[1]; component feeding 75 mg/hd/day
  Final body weight: 1459 lb/head
[1]; component feeding 90 mg/hd/day
  Final body weight: 1461 lb/head
[1]; fed continuously 6.8 g/ton (90% DMB)
  Final body weight: 1467 lb/head
[2]; P>0.19
  Backfat thickness, among the treatment groups: no significant differences
  Kidney-pelvic-heart fat percentage, among the treatment groups: no significant differences
  USDA quality grade, among the treatment groups: no significant differences
[2]; all treated groups
  Calculated yield grade, Zilmax treated groups compared to the control group: significantly lower
  Dressing percentage, Zilmax treated groups compared to the control group: significantly higher
  Hot carcass weight, Zilmax treated groups compared to the control group: significantly higher
  Marbling score, Zilmax treated groups compared to the control group: significantly lower
  Rib eye area, Zilmax treated groups compared to the control group: significantly higher
  USDA yield grade score, Zilmax treated groups compared to the control group: significantly lower
[2]; bovine, in vivo
  Calculated yield grade, component feeding groups vs continuous feeding group: no differences
  Dressing percentage, component feeding groups vs continuous feeding group: no differences
  Hot carcass weight, component feeding groups vs continuous feeding group: no differences
  Marbling score, component feeding groups vs continuous feeding group: no differences
  Rib eye area, component feeding groups vs continuous feeding group: no differences
  USDA yield grade score, component feeding groups vs continuous feeding group: no differences
[2]; component feeding 60 mg/hd/day
  Backfat Thickness: 0.49 inches
  Calculated Yield Grade: 2.81*
  Dressing % (using final body weight shrunk 4%): 63.89* %
  Hot Carcass Weight: 904* lb/head
  Kidney-Pelvic-Heart fat: 2.27%
  Ribeye Area: 15.14* sq. inches
  USDA Yield Grade: 2.19*
  Marbling Score: 453*
[2]; component feeding 75 mg/hd/day
  Backfat Thickness: 0.48 inches
  Calculated Yield Grade: 2.82*
  Dressing % (using final body weight shrunk 4%): 64.00* %
  Hot Carcass Weight: 902* lb/head
  Kidney-Pelvic-Heart fat: 2.26%
  Ribeye Area: 15.07* sq. inches
  USDA Yield Grade: 2.19*
  Marbling Score: 460*
[2]; component feeding 90 mg/hd/day
  Backfat Thickness: 0.49 inches
  Calculated Yield Grade: 2.79*
  Dressing % (using final body weight shrunk 4%): 64.06* %
  Hot Carcass Weight: 905* lb/head
  Kidney-Pelvic-Heart fat: 2.26%
  Ribeye Area: 15.20* sq. inches
  USDA Yield Grade: 2.18*
  Marbling Score: 456*
[2]; continuous 6.8 g/ton
  Backfat Thickness: 0.49 inches
  Calculated Yield Grade: 2.83*
  Dressing % (using final body weight shrunk 4%): 64.08* %
  Hot Carcass Weight: 908* lb/head
  Kidney-Pelvic-Heart fat: 2.27%
  Ribeye Area: 15.14* sq. inches
  USDA Yield Grade: 2.19*
  Marbling Score: 457*
